Measurements from EP0353754A2, “Radioactively marked benzodiazepin derivates” (F. HOFFMANN-LA ROCHE AG, priority 1988, dated 1990).
Read-outs that look alike come from different tables or passages of the source.

Experiment: Organ distribution of injected radioactivity in rats after I.V. injection
Assay type: in vivo, Ratten (weiblich, Wistar, spf)
Conditions: Ratte; for tissue uptake at 2 min / tissue uptake at 10 min / tissue uptake at 20 min / tissue uptake at 40 min / tissue uptake at 1 h / tissue uptake at 6 h / tissue uptake at 15 h: rat, iv, read-out: Prozent der injizierten Aktivität pro Gramm des entsprechenden Organs; for tissue uptake at 1 h: 60′
Procedure: Es werden je 3 Ratten (weiblich, Wistar, spf) zu sieben verschiedenen Zeitpunkten (2′, 10′, 20′, 40′, 1h, 6h, 15h) gemessen. Das Gewicht der Tiere lag zwischen 113 und 144 g. Die Fütterung erfolgte ad libitum. Die I.V. injizierten Dosen variierten von 184 bis 355 µCi in jeweils 0,2 ml.

For CCOC(=O)c1ncn2c1CN(C)C(=O)c1c([123I])cccc1-2 [Aethyl-7-¹²³Jod-5,6-dihydro-5-methyl-6-oxo-4H-imidazo[1,5-a][1,4]benzodiazepin-3-carboxylat], the “Prozent der injizierten Aktivität in den entsprechend Organen” value (Totalkörper, 15h) was 2,80 Prozent der injizierten Aktivität, the tissue uptake at 2 min (bladder, Blase) was 0.59 %ID/g and the tissue uptake at 10 min (bladder, Blase) was 1.07 %ID/g. For the same compound, the tissue uptake at 20 min (bladder, Blase) was 0.69 %ID/g, the tissue uptake at 40 min (bladder, Blase) was 0.24 %ID/g and the tissue uptake at 1 h (bladder, Blase) was 0.42 %ID/g. It also gave a tissue uptake at 6 h (bladder, Blase) of 0.57 %ID/g, a tissue uptake at 15 h (bladder, Blase, 15h) of 0.023 %ID/g and a tissue uptake at 2 min (blood, Blut) of 0.7 %ID/g. It also gave a tissue uptake at 10 min (blood, Blut) of 0.87 %ID/g, a tissue uptake at 20 min (blood, Blut) of 0.46 %ID/g and a tissue uptake at 40 min (blood, Blut) of 0.17 %ID/g. It also gave a tissue uptake at 1 h (blood, Blut) of 0.11 %ID/g, a tissue uptake at 6 h (blood, Blut) of 0.04 %ID/g and a tissue uptake at 15 h (blood, Blut, 15h) of 0.013 %ID/g. It also gave a tissue uptake at 2 min (brain, Hirn) of 2.12 %ID/g, a tissue uptake at 10 min (brain, Hirn) of 3.22 %ID/g and a tissue uptake at 20 min (brain, Hirn) of 2.99 %ID/g. For the same compound, the tissue uptake at 40 min (brain, Hirn) was 2.7 %ID/g, the tissue uptake at 1 h (brain, Hirn) was 1.8 %ID/g and the tissue uptake at 6 h (brain, Hirn) was 0.05 %ID/g. It also gave a tissue uptake at 15 h (brain, Hirn, 15h) of 0.001 %ID/g, a tissue uptake at 2 min (heart, Herz) of 0.86 %ID/g and a tissue uptake at 10 min (heart, Herz) of 0.66 %ID/g. For the same compound, the tissue uptake at 20 min (heart, Herz) was 0.3 %ID/g, the tissue uptake at 40 min (heart, Herz) was 0.1 %ID/g and the tissue uptake at 1 h (heart, Herz) was 0.06 %ID/g. The tissue uptake at 6 h (heart, Herz) was 0.02 %ID/g, the tissue uptake at 15 h (heart, Herz, 15h) was 0.007 %ID/g and the tissue uptake at 2 min (intestine, Darm) was 0.75 %ID/g. The tissue uptake at 10 min (intestine, Darm) was 1.1 %ID/g, the tissue uptake at 20 min (intestine, Darm) was 1.73 %ID/g and the tissue uptake at 40 min (intestine, Darm) was 2.02 %ID/g. For the same compound, the tissue uptake at 1 h (intestine, Darm) was 1.97 %ID/g, the tissue uptake at 6 h (intestine, Darm) was 1.55 %ID/g and the tissue uptake at 15 h (intestine, Darm, 15h) was 0.143 %ID/g. The tissue uptake at 2 min (Femur) was 0.54 %ID/g, the tissue uptake at 10 min (Femur) was 0.45 %ID/g and the tissue uptake at 20 min (Femur) was 0.24 %ID/g. The tissue uptake at 40 min (Femur) was 0.1 %ID/g, the tissue uptake at 1 h (Femur) was 0.07 %ID/g and the tissue uptake at 6 h (Femur) was 0.02 %ID/g. It also gave a tissue uptake at 15 h (Femur, 15h) of 0.007 %ID/g, a tissue uptake at 2 min (kidney, Nieren) of 2.68 %ID/g and a tissue uptake at 10 min (kidney, Nieren) of 7.06 %ID/g. The tissue uptake at 20 min (kidney, Nieren) was 5.26 %ID/g, the tissue uptake at 40 min (kidney, Nieren) was 1.35 %ID/g and the tissue uptake at 1 h (kidney, Nieren) was 0.68 %ID/g. It also gave a tissue uptake at 6 h (kidney, Nieren) of 0.03 %ID/g, a tissue uptake at 15 h (kidney, Nieren, 15h) of 0.01 %ID/g and a tissue uptake at 2 min (liver, Leber) of 2.38 %ID/g. It also gave a tissue uptake at 10 min (liver, Leber) of 5.66 %ID/g, a tissue uptake at 20 min (liver, Leber) of 2.62 %ID/g and a tissue uptake at 40 min (liver, Leber) of 0.58 %ID/g. It also gave a tissue uptake at 1 h (liver, Leber) of 0.19 %ID/g, a tissue uptake at 6 h (liver, Leber) of 0.02 %ID/g and a tissue uptake at 15 h (liver, Leber, 15h) of 0.016 %ID/g. For the same compound, the tissue uptake at 2 min (lung, Lunge) was 1.22 %ID/g, the tissue uptake at 10 min (lung, Lunge) was 0.87 %ID/g and the tissue uptake at 20 min (lung, Lunge) was 0.44 %ID/g. The tissue uptake at 40 min (lung, Lunge) was 0.15 %ID/g, the tissue uptake at 1 h (lung, Lunge) was 0.1 %ID/g and the tissue uptake at 6 h (lung, Lunge) was 0.03 %ID/g. The tissue uptake at 15 h (lung, Lunge, 15h) was 0.011 %ID/g, the tissue uptake at 2 min (muscle, Muskel) was 0.68 %ID/g and the tissue uptake at 10 min (muscle, Muskel) was 0.42 %ID/g. It also gave a tissue uptake at 20 min (muscle, Muskel) of 0.2 %ID/g, a tissue uptake at 40 min (muscle, Muskel) of 0.09 %ID/g and a tissue uptake at 1 h (muscle, Muskel) of 0.04 %ID/g. For the same compound, the tissue uptake at 6 h (muscle, Muskel) was 0.01 %ID/g, the tissue uptake at 15 h (muscle, Muskel, 15h) was 0.003 %ID/g and the tissue uptake at 2 min (ovary, Ovar) was 0.88 %ID/g. The tissue uptake at 10 min (ovary, Ovar) was 0.73 %ID/g, the tissue uptake at 20 min (ovary, Ovar) was 0.53 %ID/g and the tissue uptake at 40 min (ovary, Ovar) was 0.22 %ID/g. For the same compound, the tissue uptake at 1 h (ovary, Ovar) was 0.16 %ID/g, the tissue uptake at 6 h (ovary, Ovar) was 0.03 %ID/g and the tissue uptake at 15 h (ovary, Ovar, 15h) was 0.011 %ID/g. It also gave a tissue uptake at 2 min (spleen, Milz) of 0.6 %ID/g, a tissue uptake at 10 min (spleen, Milz) of 0.53 %ID/g and a tissue uptake at 20 min (spleen, Milz) of 0.29 %ID/g. The tissue uptake at 40 min (spleen, Milz) was 0.14 %ID/g, the tissue uptake at 1 h (spleen, Milz) was 0.07 %ID/g and the tissue uptake at 6 h (spleen, Milz) was 0.02 %ID/g. The tissue uptake at 15 h (spleen, Milz, 15h) was 0.01 %ID/g, the tissue uptake at 2 min (stomach, Magen) was 0.19 %ID/g and the tissue uptake at 10 min (stomach, Magen) was 0.41 %ID/g. For the same compound, the tissue uptake at 20 min (stomach, Magen) was 0.35 %ID/g, the tissue uptake at 40 min (stomach, Magen) was 0.27 %ID/g and the tissue uptake at 1 h (stomach, Magen) was 0.48 %ID/g. It also gave a tissue uptake at 6 h (stomach, Magen) of 0.73 %ID/g, a tissue uptake at 15 h (stomach, Magen, 15h) of 0.08 %ID/g and a tissue uptake at 2 min (thyroid, Schilddrüse) of 0.6 %ID/g. The tissue uptake at 10 min (thyroid, Schilddrüse) was 0.54 %ID/g, the tissue uptake at 20 min (thyroid, Schilddrüse) was 1.22 %ID/g and the tissue uptake at 40 min (thyroid, Schilddrüse) was 0.08 %ID/g. The tissue uptake at 1 h (thyroid, Schilddrüse) was 0.06 %ID/g, the tissue uptake at 6 h (thyroid, Schilddrüse) was 0.03 %ID/g and the tissue uptake at 15 h (thyroid, Schilddrüse, 15h) was 0.007 %ID/g.
